Experimental data reported in publication PMC6207715, “Determination of extended substrate specificity of the MALT1 as a strategy for the design of potent substrates and activity-based probes” (Scientific Reports, 2018).
*: point of attachment. ACC = NC(=O)Cc1cc(=O)oc2cc(N*)ccc12

What was measured:
Assay type in all cases: biochemical
[1] = test system: MALT1 in RAW 264.7 cell lysates; test: Labeling of active MALT1 in RAW 264.7 cell lysates; conditions: RAW 264.7 lysates pretreated with 1 µL of 10 mM mepazine, then 500 nM PKG105
Description: Figure 3 Probe to detect active MALT1. Panel a. Structure of the MALT1 probe (PKG105). Panel b. RAW 264.7 cell lysates were incubated with PKG105 at various concentrations. As a control, lysates were pretreated with mepazine, followed by incubation with probe. Lysates that were not treated with mepazine were also used. SDS-PAGE was performed at 165 V. Fluorescence was scanned using the 700 nm channel (LI-COR). Gels are representative of at least two replicates. TEXT PRINTED IN THE PICTURE: (a) PKG105: kobs/I = 92,000 M^-1s^-1
Twenty-five microliters of RAW 264.7 cell lysates (from 5 * 10^6 cells/mL) were incubated with PKG105 at concentrations ranging from 8 to 500 nM. As controls, cells that were not incubated with probe or cells that were pretreated with 1 µL of 10 mM mepazine were treated with 500 nM PKG105. The lysates were incubated with the probe for 30 minutes at 37 °C, followed by denaturation in 3 × SDS-loading buffer for 5 minutes at 95 °C. SDS-PAGE was performed under reducing conditions for 37 minutes at 165 V. The fluorescence signal in the gel was measured using a Li-Cor (Odyssey®) at a wavelength of 700 nm.

MALT1 [2] = biological target: T1, MALT1 (Homo sapiens, UniProt Q9UDY8); test: Kinetic assay of ACC fluorogenic substrates (kcat, Km, kcat/Km)
T1 sequence (Q9UDY8 1-824): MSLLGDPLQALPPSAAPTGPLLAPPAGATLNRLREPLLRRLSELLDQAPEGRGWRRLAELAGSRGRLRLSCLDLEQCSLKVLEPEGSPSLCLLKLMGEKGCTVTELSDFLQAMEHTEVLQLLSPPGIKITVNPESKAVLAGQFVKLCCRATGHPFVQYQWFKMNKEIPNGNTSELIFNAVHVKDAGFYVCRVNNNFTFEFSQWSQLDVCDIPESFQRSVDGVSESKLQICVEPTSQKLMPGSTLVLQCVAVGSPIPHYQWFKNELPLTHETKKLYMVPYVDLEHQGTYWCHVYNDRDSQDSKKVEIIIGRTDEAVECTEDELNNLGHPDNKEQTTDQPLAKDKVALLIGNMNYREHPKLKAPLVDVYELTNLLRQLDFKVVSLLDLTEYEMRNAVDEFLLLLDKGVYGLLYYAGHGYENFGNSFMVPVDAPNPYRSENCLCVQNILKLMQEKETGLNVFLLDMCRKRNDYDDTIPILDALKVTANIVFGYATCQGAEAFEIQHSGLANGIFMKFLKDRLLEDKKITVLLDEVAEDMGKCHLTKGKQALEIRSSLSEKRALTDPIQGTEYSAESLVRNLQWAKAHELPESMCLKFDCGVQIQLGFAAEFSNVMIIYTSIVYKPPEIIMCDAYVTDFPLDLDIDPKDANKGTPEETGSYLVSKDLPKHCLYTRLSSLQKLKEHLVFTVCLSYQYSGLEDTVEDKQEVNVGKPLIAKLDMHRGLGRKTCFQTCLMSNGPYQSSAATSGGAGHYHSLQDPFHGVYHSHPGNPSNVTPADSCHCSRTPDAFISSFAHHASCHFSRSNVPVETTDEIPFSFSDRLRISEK
Description: Figure 2 MALT1 substrate activity. Panel a. kcat/Km values for MALT1 substrates compared with that of the reference substrate (ALVSR). MALT1 was incubated at 37 °C for 30 minutes and added to the wells containing the substrate at varying concentrations. Relative fluorescence units were measured over time at excitation/emission wavelengths of 355/460 nm for at least 10 minutes. The data represent averages of three separate measurements, and error bars represent standard deviations. Panel b. Structure of our best (lower panel) and the reference (upper panel) MALT1 fluorogenic substrate.
All kinetic assays were performed with a Spectra Max Gemini XPS spectrofluorimeter (Molecular Devices) and 96-well Corning plates. The measurement characteristics were as follows: 37 °C, excitation/emission wavelength of 355/460 nm, cutoff of 455 nm, and varying concentrations of substrates and enzyme. The assay buffer was prepared at 23 °C and contained 50 mM HEPES (2-[4-(2-hydroxyethyl)piperazin-1-yl]ethanesulfonic acid), 100 mM NaCl, 0.9 M sodium citrate and 10 mM dithiothreitol (DTT) (pH 7.5). MALT1^FL or MALT1^CD were preincubated for 30 minutes at 37 °C before being added to wells containing substrate. Next, the increase in fluorescence was recorded over the time. Only the linear portions of the curves were used for calculations. The kcat and Km values were calculated using GraphPad Prism and Microsoft Excel software. All measurements were repeated three times, and the data presented are averages of these replicates. […]
was carried out after each coupling and Fmoc deprotection step. The N terminus was protected with an acetyl group using 5 eq AcOH, 5 eq HBTU, and 5 eq DIPEA in DMF.
After solvent removal, the resin was washed six times with DMF in order to remove excess reagents, three times with DCM, and three times with MeOH and then dried over P2O5 and cleaved from the resin with a TFA/TIPS/H2O mixture (%, v/v/v, 95:2.5:2.5).
The crude product was purified by HPLC and lyophilized. The purity of each substrate was confirmed by analytical HPLC, and each substrate was analyzed using HRMS.
Substrates were dissolved in peptide-grade DMSO to a concentration of 20 mM and stored at -80°C until use.
Calculation of kcat, Km and kcat/Km values
Kinetic parameters were calculated under the same conditions as the library with slight modification. The total reaction volume in each well was 100 μL. The substrate and enzyme concentrations used ranged from 3.90 μM to 150 μM and 40 μM, respectively.
The increase in relative fluorescence units was monitored for 20-30 minutes, and only the linear parts of the curves were used to determine the rate of the reaction. The kcat and Km values were calculated using GraphPad Prism software. All measurements were repeated three times using the appropriate concentration of the enzyme, and the data presented are averages of these repetitions.

MALT1 [3] = biological target: T1, MALT1; test: P5 library screening (Ac-P5-LVSR-ACC); conditions: 100 nM MALT1, 1 µM substrate, 37 °C; 355/460 nm; average of three
Description: Figure 1 MALT1 S5-S2 substrate preferences. Panel a. Substrate preferences of the MALT1 S4-S2 pockets; 100 μM library component was treated with 130 nM active site-titrated MALT1 in assay buffer containing 50 mM HEPES, 100 mM NaCl, 0.9 M sodium citrate and 10 mM DTT at pH 7.5. Panel b. Structures of the preferred amino acid residues at the P4-P2 positions of MALT1. Panel c. MALT1 P5 specificity. Specificity profile of MALT1 was determined with the library of general structure Ac-P5-LVSR-ACC; 100 nM MALT1 was incubated at 37 °C for 10 minutes, followed by the addition of 1 µM substrate. Relative fluorescence units were measured over time at excitation/emission wavelengths of 355/460 nm for at least 10 minutes. The data represent averages of three separate measurements, and error bars represent standard deviations.

[4] = 37 °C, 50 mM HEPES, 100 mM NaCl, 0.9 M sodium citrate, 10 mM DTT, pH 7.5, substrate 3.90-150 μM, ACC fluorescence 355/460 nm, average of three measurements

Molecule	Km (MALT1 [2]; [4]) [µM]	kcat (MALT1 [2]; [4]) [s⁻¹]	further results
CN1CCCC(CN2c3ccccc3Sc3ccccc32)C1 (stereo not shown) [Mepazine, reference compound]	–	–	effect of inhibitor pretreatment on probe labeling [1]: inhibited MALT1
Ac-ALVSR-{ACC} (SMILES CC(=O)N[C@@H](C)C(=O)N[C@@H](CC(C)C)C(=O)N[C@H](C(=O)N[C@@H](CO)C(=O)N[C@@H](CCCNC(=N)N)C(=O)Nc1ccc2c(CC(N)=O)cc(=O)oc2c1)C(C)C) [Ac-Ala-LVSR-ACC, reference compound]	9.45 ± 2.46	0.089 ± 0.033	–
Ac-KLVSR-{ACC} (SMILES CC(=O)N[C@@H](CCCCN)C(=O)N[C@@H](CC(C)C)C(=O)N[C@H](C(=O)N[C@@H](CO)C(=O)N[C@@H](CCCNC(=N)N)C(=O)Nc1ccc2c(CC(N)=O)cc(=O)oc2c1)C(C)C) [Ac-Lys-LVSR-ACC]	25.5 ± 3.56	0.12 ± 0.0010	–
Ac-Phe(guan)-LVPR-ACC-OH	–	–	kcat/Km (MALT1 [2]; [4]): 28,000 s^−1M^−1; rate of substrate hydrolysis (kcat/Km) (MALT1 [2]; estimated): 28,000 M^−1s^−1; kcat/Km relative to the best reported substrate to date (MALT1 [2]; times higher): approximately 3.5 times
Ac-RLVSR-{ACC} (SMILES CC(=O)N[C@@H](CCCNC(=N)N)C(=O)N[C@@H](CC(C)C)C(=O)N[C@H](C(=O)N[C@@H](CO)C(=O)N[C@@H](CCCNC(=N)N)C(=O)Nc1ccc2c(CC(N)=O)cc(=O)oc2c1)C(C)C) [Ac-Arg-LVSR-ACC]	19.06 ± 0.05	0.12 ± 0.0003	–
Ac-TLVSR-{ACC} (SMILES CC(=O)N[C@H](C(=O)N[C@@H](CC(C)C)C(=O)N[C@H](C(=O)N[C@@H](CO)C(=O)N[C@@H](CCCNC(=N)N)C(=O)Nc1ccc2c(CC(N)=O)cc(=O)oc2c1)C(C)C)[C@@H](C)O) [Ac-Thr-LVSR-ACC]	22.4 ± 9.94	0.12 ± 0.0050	–
Ac-Y(Bzl)-L-V-S-R-ACC-OH	–	–	activity at the P5 position in the library screen (MALT1 [3]): least active
